Results from paper PMC9144902, “Metal(II) Complexes of the Fluoroquinolone Fleroxacin: Synthesis, Characterization and Biological Profile” (Pharmaceutics, 2022).

What was measured:
[1] = tested on: EB–DNA adduct (CT DNA); assay: Competitive study with EB (EB–DNA fluorescence quenching); format: binding, calf; conditions: for Ksv, Stern–Volmer constant: EB–DNA adduct; for ΔI/Io, percentage of EB–DNA fluorescence quenching: [EB] = 20 μM, [DNA] = 26 μM, λexc 540 nm, λem 592 nm; for EB–DNA relative fluorescence emission intensity, % of the initial (I/Io): λemission = 592 nm, final value (up to), Figure S14; for kq, EB–DNA quenching constant: τo = 23 ns
Procedure: Ethidium bromide is a typical marker of intercalation because it can intercalate between adjacent DNA bases with its planar phenanthridine ring.
The fluorescence emission spectra of the EB–DNA adduct ([EB] = 20 μM, [DNA] = 26 μM) in the absence and presence of the compounds were recorded at increasing amounts of the respective compounds. […] As a conclusion, an intercalative interaction of the complexes with CT DNA can be proposed.
The values of the Stern–Volmer constants (Ksv) for the compounds were calculated using the linear Stern–Volmer equation (Equation (S2)) and were of the order of 10^5 M^−1 (Table 8), indicating tight binding of the complexes with DNA [61]. The Ksv values for the complexes are in the range found for a number of metal(II)–quinolone complexes, and complex 12 presents the highest Ksv value (Ksv = 7.25(±0.30) × 10^5 M^−1) among the compounds studied. In addition, the EB–DNA quenching constants (kq) for the compounds were calculated with Equation (S3), assuming τo = 23 ns as the fluorescence lifetime. The values of kq (Table 8) are much higher than the value of 10^10 M^−1s^−1, indicating a static mechanism of EB–DNA fluorescence quenching induced by the compounds, which can result from the formation of a new adduct apparently consisting of each complex and DNA [61].
In order to determine and confirm the DNA–binding mode of the compounds, a competitive study with EB as an intercalating marker is performed b y fluorescence emission spectroscopy.
Therefo re, the E B–displacing abilit y of the compounds from its EB –DN A conjugate was ex amined.
The DNA–EB adduct was prepared b y addition of 20 μM EB and 26 μM CT DNA in buffer solution (150 mM NaCl and 15 mM trisodium citrate at pH 7.0). The potential intercalation of the compounds between the DNA–bases was studied by the addition of a certain amount of the compound solution into the EB–DNA adduct solution. The influence of the compounds on the EB – DNA solution was monitored through the changes of the fluorescence emission spectra at excitation […]
wavelen gth (λex ) at 540 nm [S3]. […]
room temperature in solution or in the presence of DNA, under the same experimental conditions (λex = 540 nm). Bearing t hat in mind, the observed quenching of the EB–DNA solution is evidentl y associated to the displacement of EB from its EB–DNA adduct.
The quenching effici ency (KSV) for each compound was assessed according to the Stern – Volmer equation: Io =1+ k τ [Q] = 1+ K [Q], (eq. S2) [S3] where I0 and I = the fluorescence […]
emission intensities of EB–DNA in the absence and presence of the quencher, respectivel y, [Q] = the concentration of the quencher (i.e. compounds). KSV is obtained from t he Stern–Volmer plots b y the slope of the diagram I0/ I versus [Q]. Taking τ0 = 23 ns as the fluorescence lifetime of the EB– DNA s ystem [S5], the EB –DNA quenching constants (k q) of the compounds can be determined accordin g to eq.S3: K SV = kqτo . […]
[S2] Irgi, E.P.; Geromichalos, G.D.; Balala, S.; Kljun, J.; Kalogiannis, S.; Papadopoulos, A.; Turel, I.; Psomas, G. Cobalt(II) complexes with quinolone antimicrobial drug oxolinic acid: […]
[ S 5] Heller, D.P.; Greenstock, C.L. Fluorescence lifetime analysis of DNA intercalated ethidium bromide and quenching by free d ye. Biophys. Chem . 1994, 50, 305–312.

[2] = tested on: CT DNA; assay: Study of the DNA-interaction by cyclic voltammetry; format: binding, calf; conditions: for Epa(f), anodic potential / Epc(f), cathodic potential / Epa(b), anodic potential / Epc(b), cathodic potential: M(II)/M(I), 1:2 DMSO/buffer; for Epa(f), anodic potential / Epc(f), cathodic potential: absence of CT DNA; for Epa(b), anodic potential / Epc(b), cathodic potential: presence of CT DNA; for Kr/Kox, ratio of equilibrium DNA-binding constants (reduced/oxidized form): eq. S6
Procedure: Cyclic voltammetry was used to study the interaction of the complexes with CT DNA. An intercalative interaction will induce a positive shift for the electrochemical potential(s) of metal oxidation/reduction, whereas, in the case of electrostatic interaction, a negative shift in the potential(s) may occur. The cyclic voltammograms of the complexes in a 1:2 DMSO:buffer solution (0.33 mM) were recorded in the absence and presence of the CT DNA solution (Figure S13). The predominant electrochemical feature for all complexes is a positive shift in the potential in the presence of CT DNA (ΔEpc/a = (–30)–(+127) mV). Consequently, the intercalative nature of the interaction of the complexes with DNA can be inferred from the presented data.
In order to evaluate further the redox behavior of the complexes, the corresponding equilibrium constants were calculated by determining the ratio Kr/Kox in accordance to Equation (S6), where Kox and Kr are the DNA-binding constants for the oxidized and reduced form, respectively, of the metal ions. For all complexes, the Kr/Kox ratio is close to or above 1 (Table 7), showing the selective binding of DNA to the […] form of the complexes. […]
S3.3 Study of the DNA –interaction by cyclic vol ta mmetry
Cyclic voltammetr y can be also used in order to calculate the corresponding equilibrium constant for the redox process. The ratio of the DNA–binding constants for the reduced (K r) and oxidized forms (Kox) of t he complex es (Kr/Kox) w as calculat ed according t o eq. S6:
Δ = = 0.059 × lo gEE E K oxoo o (eq. S6) […]
where Eo and Eo are the formal potentials of M(II)/M(I) redox couple in the fully bound and […]
free complexes, respectivel y. Kox and Kr are the binding constants for the binding of the oxidized and reduced species to DNA, respectivel y [S8] . […]

[3] = molecular target: T1, bovine serum albumin (BSA) (Bos taurus, UniProt P02769); assay: Albumin binding by tryptophan fluorescence emission quenching; conditions: for K(BSA), BSA-binding constant / kq(BSA), BSA-quenching constant: BSA 3 μM; for K(BSA), BSA-binding constant: buffer pH 7.0, Scatchard equation; for kq(BSA), BSA-quenching constant: buffer pH 7.0, λexc 295 nm, Stern–Volmer, τ0 = 10^–8 s; for BSA fluorescence, % of the initial fluorescence intensity (I/Io): λem,max = 342 nm, final value of titration (Figure S11)
T1 construct: purchased
Procedure: (§1) Serum albumins (Sas) are the most abundant serum proteins and play a role in the circulatory system, primarily in the transport of drugs and other bioactive small molecules through the bloodstream.
(§2) The SA-quenching constants (kq) for the compounds (Table 5) were calculated with the Stern–Volmer quenching equation (Equations (S2) and (S3)).
(§3) Albumin-binding constants (K) were calculated using the Scatchard equation (Equation (S4)). […]
(§4) S2. Interaction with serum albumins
(§5) The albumin–binding study for the compounds was carried out b y fluorescence emission

[4] = molecular target: T2, human serum albumin (HSA) (Homo sapiens, UniProt P02768); assay: as above; conditions: for K(HSA), HSA-binding constant / kq(HSA), HSA-quenching constant: HSA 3 μM; for K(HSA), HSA-binding constant: buffer pH 7.0, Scatchard equation; for kq(HSA), HSA-quenching constant: buffer pH 7.0, λexc 295 nm, Stern–Volmer, τ0 = 10^–8 s; for HSA fluorescence, % of the initial fluorescence intensity (I/Io): λem,max = 351 nm, final value of titration (Figure S10)
T2 construct: purchased
Procedure: as §1, §2, §3, §4, §5

T1 sequence (P02769 25-607): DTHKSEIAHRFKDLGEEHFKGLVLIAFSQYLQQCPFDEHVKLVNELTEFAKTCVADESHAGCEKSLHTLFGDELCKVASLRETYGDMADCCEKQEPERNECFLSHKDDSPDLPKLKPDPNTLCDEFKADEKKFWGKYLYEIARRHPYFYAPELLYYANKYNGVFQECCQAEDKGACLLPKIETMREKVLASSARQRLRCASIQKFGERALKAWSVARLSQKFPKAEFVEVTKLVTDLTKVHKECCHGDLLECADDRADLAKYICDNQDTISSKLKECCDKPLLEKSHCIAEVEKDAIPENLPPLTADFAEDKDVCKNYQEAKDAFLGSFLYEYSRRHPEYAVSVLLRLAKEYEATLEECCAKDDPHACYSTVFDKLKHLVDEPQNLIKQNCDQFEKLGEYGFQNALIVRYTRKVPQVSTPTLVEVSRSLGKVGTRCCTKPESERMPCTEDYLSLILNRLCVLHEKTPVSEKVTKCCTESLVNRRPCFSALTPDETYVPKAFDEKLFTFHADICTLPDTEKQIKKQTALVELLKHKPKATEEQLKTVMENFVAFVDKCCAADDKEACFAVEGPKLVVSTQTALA
T2 sequence (P02768 25-609): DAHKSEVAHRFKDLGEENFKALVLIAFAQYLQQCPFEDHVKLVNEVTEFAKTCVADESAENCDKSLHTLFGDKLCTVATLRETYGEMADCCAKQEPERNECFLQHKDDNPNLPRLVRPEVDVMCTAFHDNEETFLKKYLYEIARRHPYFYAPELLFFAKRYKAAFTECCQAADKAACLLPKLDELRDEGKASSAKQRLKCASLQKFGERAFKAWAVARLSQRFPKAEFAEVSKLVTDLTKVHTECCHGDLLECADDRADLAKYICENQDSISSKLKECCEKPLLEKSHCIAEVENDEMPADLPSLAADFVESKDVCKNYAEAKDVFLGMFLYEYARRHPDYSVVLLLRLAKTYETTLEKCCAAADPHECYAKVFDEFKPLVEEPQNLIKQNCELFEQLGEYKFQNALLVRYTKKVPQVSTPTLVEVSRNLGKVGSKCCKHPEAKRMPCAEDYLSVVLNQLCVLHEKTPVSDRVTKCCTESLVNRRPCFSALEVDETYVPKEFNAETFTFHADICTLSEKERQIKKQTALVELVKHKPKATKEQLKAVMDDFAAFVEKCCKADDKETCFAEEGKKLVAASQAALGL

Structure (SMILES)	Ksv, Stern–Volmer constant [1]	ΔI/Io, percentage of EB–DNA fluorescence quenching [1] [%]	EB–DNA relative fluorescence emission intensity, % of the initial (I/Io) [1] [%]	kq, EB–DNA quenching constant [1]	Epa(f), anodic potential [2] [mV]	Epc(f), cathodic potential [2] [mV]	Epa(b), anodic potential [2] [mV]	Epc(b), cathodic potential [2] [mV]	Kr/Kox, ratio of equilibrium DNA-binding constants (reduced/oxidized form) [2]	K(BSA), BSA-binding constant [3]	kq(BSA), BSA-quenching constant [3]	BSA fluorescence, % of the initial fluorescence intensity (I/Io) [3] [%]	K(HSA), HSA-binding constant [4]	kq(HSA), HSA-quenching constant [4]	HSA fluorescence, % of the initial fluorescence intensity (I/Io) [4] [%]
CN1CCN(c2c(F)cc3c(=O)c(C(=O)[O-])cn(CCF)c3c2F)CC1.CN1CCN(c2c(F)cc3c(=O)c(C(=O)[O-])cn(CCF)c3c2F)CC1.[Co+2].c1cnc2c(c1)ccc1cccnc12 [complex 17, [Co(flrx)2(phen)]]	3.56(±0.10) × 10^5 M^–1	69.8	30.2	1.55(±0.05) × 10^13 M^−1s^−1	−523	−695	−518	−689	1.10	1.44(±0.03) × 10^5 M^−1	1.50(±0.03) × 10^13 M^−1s^−1	26.3	5.18(±0.32) × 10^4 M^−1	6.49(±0.21) × 10^12 M^−1s^−1	44.5
CN1CCN(c2c(F)cc3c(=O)c(C(=O)[O-])cn(CCF)c3c2F)CC1.CN1CCN(c2c(F)cc3c(=O)c(C(=O)[O-])cn(CCF)c3c2F)CC1.[Mn+2].c1ccc(Nc2ccccn2)nc1 [complex 10, [Mn(flrx)2(bipyam)]]	5.92(±0.14) × 10^5 M^–1	81.1	18.9	2.57(±0.06) × 10^13 M^−1s^−1	−495	−706	−508	−695	0.98	6.46(±0.39) × 10^4 M^−1	1.20(±0.04) × 10^13 M^−1s^−1	31.6	8.40(±0.58) × 10^4 M^−1	8.01(±0.23) × 10^12 M^−1s^−1	47.4
CN1CCN(c2c(F)cc3c(=O)c(C(=O)[O-])cn(CCF)c3c2F)CC1.CN1CCN(c2c(F)cc3c(=O)c(C(=O)[O-])cn(CCF)c3c2F)CC1.[Co+2].c1ccc(-c2ccccn2)nc1 [complex 15, [Co(flrx)2(bipy)]]	4.69(±0.09) × 10^5 M^–1	80.4	19.6	2.04(±0.04) × 10^13 M^−1s^−1	−533	−701	−541	−695	0.98	2.84(±0.11) × 10^5 M^−1	5.12(±0.17) × 10^13 M^−1s^−1	9.2	8.13(±0.25)×10^4 M^−1	1.56(±0.05) × 10^13 M^−1s^−1	26.1
CN1CCN(c2c(F)cc3c(=O)c(C(=O)[O-])cn(CCF)c3c2F)CC1.CN1CCN(c2c(F)cc3c(=O)c(C(=O)[O-])cn(CCF)c3c2F)CC1.O.O.[Mn+2] [complex 2, [Mn(flrx)2(H2O)2]]	6.07(±0.23) × 10^5 M^–1	74.4	15.6	2.64(±0.10) × 10^13 M^−1s^−1	−455	−684	−466	−678	0.96	1.45(±0.04) × 10^5 M^−1	3.45(±0.16) × 10^13 M^−1s^−1	11.1	9.58(±0.39) × 10^4 M^−1	1.42(±0.04) × 10^13 M^−1s^−1	28.5
